The record followed here is patent US20040034104A1, “2,2-Diphenylbutanamide derivatives and medicines containing the same” (priority 2000, published 2004).

Structures are written as SMILES.

For orientation: melting point means the temperature of the solid-liquid transition.

Test system in the first data set: not given
Experiment: not given
Conditions: not given
Turning to `CN(C)C(=O)C(CCN1CCC(c2ccccc2OCC(=O)O)CC1)(c1ccccc1)c1ccccc1`, the melting point came to 202 °C.

The compound `CCOC(=O)COc1ccccc1C1=CCN(CCC(C(=O)N(C)C)(c2ccccc2)c2ccccc2)CC1` had a melting point of 147 °C.

`CN(C)C(=O)C(CCN1CC=C(c2ccccc2OCC(=O)O)CC1)(c1ccccc1)c1ccccc1` yielded a melting point of 135 °C.

On to `O=C(O)COc1ccccc1C1CCN(CCC(C(=O)N2CCCC2)(c2ccccc2)c2ccccc2)CC1`, for which the melting point amounted to 239 °C.

As for `CN(C)C(=O)C(CCN1CCC(c2ccccc2OC(C)(C)C(=O)O)CC1)(c1ccccc1)c1ccccc1`, the melting point is 156 to 158 °C.

In the next data set the test system is opioid receptor (μ-opioid). In words: Opioid receptor agonist activity in guinea pig ileum longitudinal muscle specimens. Conditions: agonist activity relative to DAMGO (=1.0); ileum longitudinal muscle specimens with Auerbach's plexus; method of Oka et al. As to the method:
Hartley male guinea pigs (body weight: about 500 g) wer employed. The ileum (15-30 cm) was removed from the ileocecum of each guinea pig, to thereby prepare longitudinal muscle specimens having Auerbach's plexus. Opioid receptor activity of the test drugs was measured through a method proposed by Oka et al. (Eur. J. Pharmacol., 77; 137-141, 1982). Agonist activity is represented by the efficacy relative to the activity of DAMGO ([D-Ala^2, N-MePhe^4, Gly^5-ol]-enkephalin), which is a selective μ-opioid agonist.
The compound `CN(C)C(=O)C(CCN1CCN(c2ccccc2O)CC1)(c1ccccc1)c1ccccc1` [Compound No. 36, 4-[4-(2-Hydroxyphenyl)piperazin-1-yl]-N,N-dimethyl-2,2-diphenylbutanamide] yielded a Relative potency of 10.

Compound `CN(C)C(=O)C(CCN1CCN(c2ccccc2OCCO)CC1)(c1ccccc1)c1ccccc1` [Compound No. 43, 4-[4-[2-(2-hydroxyethoxy)phenyl]piperazin-1-yl]-N,N-dimethyl-2,2-diphenylbutanamide] showed a Relative potency of 20.

On to `CN(C)C(=O)C(CCN1CCC(c2ccccc2OCCO)CC1)(c1ccccc1)c1ccccc1` [Compound No. 69, 4-[4-[2-(2-hydroxyethoxy)phenyl]piperidin-1-yl]-N,N-dimethyl-2,2-diphenylbutanamide], for which the Relative potency amounted to 10.

`C[C@@H](NC(=O)[C@@H](N)Cc1ccc(O)cc1)C(=O)NCC(=O)N(C)[C@@H](Cc1ccccc1)C(=O)NCCO` [DAMGO, [D-Ala^2, N-MePhe^4, Gly^5-ol]-enkephalin, reference compound] had a Relative potency of 1.0.

`CN(C)C(=O)C(CCN1CCN(c2ccccc2OCC(=O)O)CC1)(c1ccccc1)c1ccccc1` [compound 45] gave a Relative potency of 20.
